Measurements taken from patent publication US11479536B1 (King Abdulaziz University, priority 2022, dated 2022).

Columns and labels:
[1] = target: T1, CYP3A4 (Homo sapiens, UniProt P08684); assay: Inhibition assay of human CYP450 enzymes, 3A4; assay type: in vitro ADME
T1 construct: purchased Fisher Scientific; host or cells: insect supersomes
Experimental: (§1) The two compounds MAK-1 and MAK-6 were assessed for its ability to inhibit the three major human CYP450 enzymes, 3A4, 2D6 and 2C9. Assays were run in triplicate. Expressed enzymes in insect supersomes (Fisher Scientific, Waltham, Mass.) were used to minimize non-specific binding and membrane partitioning issues (McMasters et al., 2007). The 3A4 assay uses testosterone as a substrate and analysis was performed by LC/MS/MS on a Waters Xevo TQ instrument as described above using positive electrospray ionization. Assay acceptance criteria was 20% for all standards and 25% for the LLOQ. The 2D6 and 2C9 assays use fluorescent substrates (3-[2-(N,N-diethylamino)ethyl]-7-methoxy-4-methylcoumarin for 2D6; 7-methoxy-4-(trifluoromethyl)coumarin for 2C9) and were analyzed on an Envision plate reader. GraphPad® Prism v 5.04 was used for nonlinear fitting of data to generate IC50 values.

[2] = target: T2, AMPK (A1/B1/G2) (Homo sapiens, UniProt Q13131+Q9UGJ0+Q9Y478); assay: Cell-free AMPK inhibition assay, AMPK (A1/B1/G2) Kinase Enzyme system; assay type: biochemical; settings: recombinant full-length human AMPK
T2 construct: This system includes a recombinant full-length human AMPK enzyme; purchased Promega
Experimental: The inhibitory effect of serial concentrations of MAK compounds on AMPK Kinase activity was investigated using the highly sensitive AMPK (A1/B1/G2) Kinase Enzyme assay system (Promega, Madison Wis. USA). This system includes a recombinant full-length human AMPK enzyme and a substrate for the enzyme. The experiment was conducted according to the manufacturer's instructions in the provided protocol. Mean values of replicates were calculated in comparison to the control group.

[3] = system: MCF7 spheroids; assay: Cytotoxicity assay (MTT) in spheroid culture, MCF7; assay type: cell-based, human; settings: for IC50: Homo sapiens, MCF7, 3D spheroid model, 48 h, MTT; for reduction of spheroid size: MCF7 spheroids treated at IC50 for 48 h, vs control
Experimental: (§2) 1×10^4 cells of each cell line (MCF7 and T47D) were seeded into ultra-low attachment 96 well plate at 37° C. and grown for 48 hours in DMEM media to result in the formation of spheroids. Then, the cells were subjected to the different treatment conditions before performing the assays.
(§3) The cytotoxic effects of MAK compounds were assessed against MCF7 and T47D cell lines using MTT cell viability assay. The cells were treated for 48 hours with different concentrations of each MAK compound and the control cells were subjected to the vehicle (0.1% DMSO). Then, 10% of 5 mg/mL MTT was added to each well containing treated or control cells, and mixture was incubated at 37° C. for 3 hours. After that, the MTT-containing media was replaced with 100 μL DMSO and incubated for 10 minutes at room temperature before measuring the absorbance for each well at 570 nm. According to the measured absorbance, the IC50 was calculated for each compound. All the experiments were performed in biological and experimental replicates.

[4] = system: T47D spheroids; assay: Mitochondrial membrane potential assay (JC-1), T47D spheroids; assay type: cell-based, human; settings: 48 h post treatment at IC50, control 15.67±2.05%
Experimental: (§4) The mitochondrial membrane potential was investigated in response to the treatment with MAK compounds. This assay depends on the measurement of the aggregate fluorescence for Tetraethylbenzimidazolylcarbocyanine iodide (JC-1). This cationic dye accumulates in the energized mitochondria, and the increase in aggregate fluorescence indicates mitochondrial […] while the reduction indicates the depolarization state.
(§5) After growing the cells and treating them with MAK compound for 48 hours, 2 μM of JC-1 final concentration was added and the mixture was incubated for 1 hour at 37° C. in presence of 5% CO2. Then, the samples were analyzed using flow cytometry. Mean values and standard deviation of replicates were calculated in comparison to the control group.

[5] = system: MCF7 spheroids; assay: Reactive oxygen species (CellROX) assay, MCF7 spheroids; assay type: cell-based, human; settings: 48 h treatment, CellROX Green
Experimental: (§6) The CELLROX (Invitrogen) assay was used to measure the level of reactive oxygen species (ROS) in live cells. […] The technique was used to investigate the capability of tested compounds to induce intracellular ROS. After forming the spheroids for 48 hours and treating them for additional 48 hours with MAK compound, spheroids were incubated in culture medium with 500 nM CellROX for 60 minutes at 37° C. in presence of 5% CO2, and the samples were immediately analyzed on flow cytometry using 488-nm excitation for the CellROX® Green.

[6] = system: MCF7 spheroids; assay: Live and dead assay of tumor spheroids, MCF7; assay type: cell-based, human; settings: 48 h post treatment, control 10.33±2.40%
Experimental: The Live/Dead assay contains a mixture of two staining fluorescent dyes that label live and dead cells to enable differentiation between them. The cell viability of the cells in response to the treatment with MAK compounds was examined. The cells were grown for 48 hours and treated with MAK compound for additional 48 hours, then Cytox RED solution reagent was added. After incubation at 37° C. under 5% CO2 for 1 hour, the samples were immediately analyzed by flow cytometry. Mean values and standard deviation of replicates were calculated in comparison to the control group.

[7] = system: T47D spheroids; assay: Reactive oxygen species (CellROX) assay, T47D spheroids; assay type: cell-based, human; settings: 48 h treatment, CellROX Green
Experimental: as §6

[8] = Stability in human liver microsomes; assay type: in vitro ADME
Experimental: Both mouse and human liver microsomes were obtained from Merck KGaA, (Darmstadt, Germany), Cat. No. M9441 (Mouse liver microsomes) and M0317 (Human liver microsomes). Assays were conducted in triplicate in 96-deep well polypropylene plates. The compounds were incubated with pooled liver microsomes from male CD-1 mice (Life Technologies, Grand Island, N.Y.), tetra-sodium NADPH and magnesium chloride for 60 min at 37° C. with gentle shaking. At five time points, reaction mixture aliquots were transferred to 96-shallow well stop plates on ice containing acetonitrile with 0.1 μM propafenone. […] Standard curves for test compound were generated using 5 concentrations in triplicate that were processed as above but with zero incubation time. Stop plates were centrifuged at 2000 g for 10 min and then supernatant aliquots were transferred to a Waters Aquity® UPLC 700 μL 96-well sample plate with cap mat (Waters, Milford, Mass.). The amount of compound remaining in the supernatant was quantified by LC/MS/MS using a Waters Xevo TQ MS (electrospray positive mode) coupled to a Waters Aquity® UPLC (BEH column, C18). Propafenone was used as the internal standard. GraphPad® Prism v 5.04 was used for nonlinear fitting of time course data to generate t1/2 values.

[9] = system: T47D spheroids; assay: Cytotoxicity assay (MTT) in spheroid culture, T47D; assay type: cell-based, human; settings: for IC50: Homo sapiens, T47D, 3D spheroid model, 48 h, MTT; for reduction of spheroid size: T47D spheroids treated at IC50 for 48 h, vs control
Experimental: as §2, §3

[10] = target: T3, CYP2C9 (Homo sapiens, UniProt P11712); assay: Inhibition assay of human CYP450 enzymes, 2C9; assay type: in vitro ADME
T3 construct: purchased Fisher Scientific; host or cells: insect supersomes
Experimental: as §1

[11] = system: MCF7 spheroids; assay: Mitochondrial membrane potential assay (JC-1), MCF7 spheroids; assay type: cell-based, human; settings: 48 h post treatment at IC50, control 18.01±0.58%
Experimental: as §4, §5

T2 sequence (Q13131 whole entry): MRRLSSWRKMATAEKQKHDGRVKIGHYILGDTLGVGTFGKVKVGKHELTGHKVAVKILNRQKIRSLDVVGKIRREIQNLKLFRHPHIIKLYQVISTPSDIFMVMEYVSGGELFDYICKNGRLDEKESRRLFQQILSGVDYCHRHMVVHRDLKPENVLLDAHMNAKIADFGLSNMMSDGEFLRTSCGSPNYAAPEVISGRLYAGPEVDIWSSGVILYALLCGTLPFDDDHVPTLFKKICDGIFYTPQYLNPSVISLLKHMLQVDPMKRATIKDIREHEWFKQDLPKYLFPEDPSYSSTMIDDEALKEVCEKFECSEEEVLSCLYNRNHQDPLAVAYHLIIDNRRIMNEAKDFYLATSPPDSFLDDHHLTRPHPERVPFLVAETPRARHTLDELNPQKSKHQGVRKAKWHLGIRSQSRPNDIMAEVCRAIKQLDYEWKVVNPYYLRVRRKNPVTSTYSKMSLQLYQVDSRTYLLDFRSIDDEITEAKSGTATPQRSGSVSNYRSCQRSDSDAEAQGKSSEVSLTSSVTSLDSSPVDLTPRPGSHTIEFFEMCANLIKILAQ
T2 sequence (Q9Y478 whole entry partner): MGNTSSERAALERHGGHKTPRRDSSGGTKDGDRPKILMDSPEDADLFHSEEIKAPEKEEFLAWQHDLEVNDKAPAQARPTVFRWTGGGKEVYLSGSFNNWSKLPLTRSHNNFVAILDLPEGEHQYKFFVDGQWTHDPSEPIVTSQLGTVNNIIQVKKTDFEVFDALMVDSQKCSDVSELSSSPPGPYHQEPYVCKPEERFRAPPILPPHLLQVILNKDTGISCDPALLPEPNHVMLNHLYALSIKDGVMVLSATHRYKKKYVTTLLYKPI
T2 sequence (Q9UGJ0 whole entry partner): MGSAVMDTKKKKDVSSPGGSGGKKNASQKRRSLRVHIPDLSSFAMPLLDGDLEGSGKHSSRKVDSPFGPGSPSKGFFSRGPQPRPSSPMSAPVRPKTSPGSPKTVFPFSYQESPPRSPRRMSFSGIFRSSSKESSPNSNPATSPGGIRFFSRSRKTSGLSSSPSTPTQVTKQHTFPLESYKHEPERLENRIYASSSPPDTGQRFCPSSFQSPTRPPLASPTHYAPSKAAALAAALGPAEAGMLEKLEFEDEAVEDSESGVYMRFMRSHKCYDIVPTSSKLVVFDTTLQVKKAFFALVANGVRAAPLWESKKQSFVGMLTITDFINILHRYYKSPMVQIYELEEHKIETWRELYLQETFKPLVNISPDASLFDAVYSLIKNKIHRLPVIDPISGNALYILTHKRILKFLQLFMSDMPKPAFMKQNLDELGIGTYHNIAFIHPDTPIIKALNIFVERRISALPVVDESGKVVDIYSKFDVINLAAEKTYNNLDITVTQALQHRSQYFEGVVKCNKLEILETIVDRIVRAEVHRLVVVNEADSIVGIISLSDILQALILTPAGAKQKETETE
T3 sequence (P11712 whole entry): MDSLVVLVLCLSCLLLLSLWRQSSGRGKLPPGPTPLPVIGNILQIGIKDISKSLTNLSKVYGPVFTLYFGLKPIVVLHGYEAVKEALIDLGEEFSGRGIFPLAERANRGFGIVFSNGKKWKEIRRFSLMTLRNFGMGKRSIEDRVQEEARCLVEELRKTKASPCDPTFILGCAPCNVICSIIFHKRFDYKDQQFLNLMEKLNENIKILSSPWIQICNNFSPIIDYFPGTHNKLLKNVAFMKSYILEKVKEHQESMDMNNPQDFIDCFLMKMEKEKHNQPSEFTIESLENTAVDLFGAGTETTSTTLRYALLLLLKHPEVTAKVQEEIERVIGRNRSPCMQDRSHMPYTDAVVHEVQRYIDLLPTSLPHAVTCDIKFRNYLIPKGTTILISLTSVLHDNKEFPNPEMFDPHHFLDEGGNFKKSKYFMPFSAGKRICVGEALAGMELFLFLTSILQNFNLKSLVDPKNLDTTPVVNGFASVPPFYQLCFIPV
T1 sequence (P08684 whole entry): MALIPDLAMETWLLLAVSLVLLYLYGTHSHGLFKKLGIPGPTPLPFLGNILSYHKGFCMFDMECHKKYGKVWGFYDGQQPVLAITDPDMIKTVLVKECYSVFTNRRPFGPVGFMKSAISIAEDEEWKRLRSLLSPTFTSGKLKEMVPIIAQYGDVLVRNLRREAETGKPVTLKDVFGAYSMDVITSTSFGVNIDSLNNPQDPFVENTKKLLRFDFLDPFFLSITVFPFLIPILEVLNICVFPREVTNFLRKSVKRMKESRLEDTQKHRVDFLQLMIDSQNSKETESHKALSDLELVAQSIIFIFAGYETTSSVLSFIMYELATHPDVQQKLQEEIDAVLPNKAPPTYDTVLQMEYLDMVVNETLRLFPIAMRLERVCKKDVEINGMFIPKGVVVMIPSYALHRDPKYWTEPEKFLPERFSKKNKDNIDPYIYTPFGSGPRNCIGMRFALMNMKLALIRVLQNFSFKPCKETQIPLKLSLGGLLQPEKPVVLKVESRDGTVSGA

Compound | inhibition of CYP3A4 ([1]; concentration not given) | IC50 [2] [µM] | IC50 [3] [µM] | reduction of spheroid size [3] | depolarized cells (mitochondrial membrane), mean±SEM [4] [%] | ROS level, treatment vs control [5] [%] | dead rate (dead cells), mean±SEM [6] [%] | ROS level, treatment vs control [7] [%] | stability in human liver microsomes ([8]; in presence of NADPH, result in words) | stability in human liver microsomes ([8]; lacking (in absence of) NADPH) | IC50 [9] [µM] | reduction of spheroid size [9] | inhibition of CYP2C9 ([10]; concentration not given) | depolarized cells (mitochondrial membrane), mean±SEM [11] [%] | inhibition of CYP3A4 ([1]; concentrations up to 10 μM) | half-life ([8]; human, liver microsomes, in the presence of NADPH, 37° C., read-out: stability to oxidative metabolism in human liver microsomes (t1/2)) [min] | inhibition of CYP2C9 ([10]; concentrations up to 10 μM)
O=C(Cc1ccc(NC(=O)c2cccc(Cl)c2)cn1)NCc1ccccc1 [MAK-6, N-(6-(2-(benzylamino)-2-oxoethyl)pyridin-3-yl)-3-chlorobenzamide] | did not display any inhibitory activity | 0.0056 | 22.9 ± 0.245 | noticeable reduction | 32.77±0.54 | 6 | 34.27±0.49 | 6 | highly stable | highly stable | 7.29 ± 0.085 | noticeable reduction | did not display any inhibitory activity | 28.73±0.82 | – | – | –
COc1cccc(C(=O)Nc2ccc(CC(=O)NCc3ccccc3)cc2)c1 [MAK-1, N-(4-(2-(benzylamino)-2-oxoethyl)phenyl)-3-methoxybenzamide] | – | 0.0048 | 23.81 ± 0.16 | noticeable reduction | 36.77±1.17 | 10 | 36.33±0.88 | 4 | – | a trend that was not repeated | 13.9 ± 0.095 | noticeable reduction | – | 24.77±0.65 | no inhibition | 35 | no inhibition
